Experimental data from publication PMC3199943, “Screening the MayBridge Rule of 3 Fragment Library for Compounds That Interact with the Trypanosoma brucei myo-Inositol-3-Phosphate Synthase and/or Show Trypanocidal Activity” (Molecular Biology International, 2011).
Where two headings read alike, the source gives them in different places.

Legend:
[1] = tested on: HeLa cells; experiment: cells; details: for HeLa Cells Alamar Blue: Supplementary Table 1; for viability at 500 µM / CC50: Homo sapiens, HeLa; for viability at 500 µM: 65 h; for CC50: read-out: HeLa ED50
How it was run: (§1)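 Viability by Alamar Blue (5 h) after ~65 h drug treatment; seeding density 2 × 10^4 cells/well in DMEM supplemented with 10% FCS and 2 mM L-Glutamine.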

[2] = biological target: T1, TbINO1 (Trypanosoma brucei brucei, UniProt Q5QQ46); experiment: biochemical; format: binding
T1 sequence (Q5QQ46 1-528): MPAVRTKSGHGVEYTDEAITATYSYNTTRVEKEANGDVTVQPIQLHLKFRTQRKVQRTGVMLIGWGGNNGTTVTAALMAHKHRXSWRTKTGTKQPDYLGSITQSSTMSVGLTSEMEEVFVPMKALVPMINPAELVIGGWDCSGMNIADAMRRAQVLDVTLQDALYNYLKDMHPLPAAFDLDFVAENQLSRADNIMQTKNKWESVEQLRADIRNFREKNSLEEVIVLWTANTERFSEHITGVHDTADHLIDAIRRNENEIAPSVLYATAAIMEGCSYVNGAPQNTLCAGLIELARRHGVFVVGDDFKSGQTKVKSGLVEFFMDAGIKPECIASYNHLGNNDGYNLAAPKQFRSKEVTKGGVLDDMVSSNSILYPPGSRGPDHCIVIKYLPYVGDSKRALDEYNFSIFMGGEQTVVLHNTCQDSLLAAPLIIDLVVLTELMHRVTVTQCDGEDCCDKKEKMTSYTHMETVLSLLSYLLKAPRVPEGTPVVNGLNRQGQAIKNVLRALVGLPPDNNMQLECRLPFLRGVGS

[3] = tested on: A549 cells; experiment: Cytotoxicity against A549 cells, Alamar Blue; format: cell-based; details: Supplementary Table 1, compound 0.5 mM, percentage of controls (n=1); for viability at 500 µM: Homo sapiens, A549, 65 h
How it was run: as §1

[4] = compound 0.5 mM, percentage of controls, mean ± SD (n=3) or SE (n=2)
[5] = Supplementary Table 1, compound 1mM, mean ± SD from Boltzman curve fitting
[6] = read-out: HeLa Cells Alamar Blue
[7] = read-out: Tb Ino1 Tm Shift [˚C]
[8] = read-out: HeLa Cells Alamar Blue (% survival)
[9] = Supplementary Table 1, compound 1mM, mean ± SD from Boltzman curve fitting, read-out: Tb Ino1 Tm Shift [˚C]

Compound: OCc1ccc(CN2CCCC2)cc1 [compound 559, [4‐(pyrrolidin‐1‐ylmethyl)phenyl]methanol]
- HeLa Cells Alamar Blue [1, 4]: 91.7 ± 15.8 percentage of controls
- Tb Ino1 Tm Shift [˚C] [2, 5]: 0.05 ± 0.08 °C
- A549 Cells Alamar Blue [3]: 110 percentage of controls

Compound: N#Cc1ccccc1-n1cccn1 [compound 340, 2‐(1H‐pyrazol‐1‐yl)benzonitrile]
- viability at 500 µM [1, 6]: 104 ± 16.5%
- ΔTm at 1000 µM [2, 7]: 0.18 ± 0.06 °C
- viability at 500 µM [3]: 134%

Compound: Cc1oc(-c2ccccc2)cc1CO [compound 521, (2‐methyl‐5‐phenyl‐3‐furyl)methanol]
- viability at 500 µM [1, 6]: 41.5 ± 15%
- ΔTm at 1000 µM [2, 7]: 1.27 ± 0.07 °C
- viability at 500 µM [3]: 57.1%

Compound: Cc1cc(CO)c(-c2ccccc2)o1 [compound 522, (5-methyl-2-phenyl-3-furyl)methanol]
- viability at 500 µM [1, 6]: 24.3 ± 17.4%
- viability at 500 µM [1, 8]: 24.3 ± 17.4%
- ΔTm at 1000 µM ([2]; read-out: TbIno1 Tm shift [°C]): 1.61 ± 0.06 °C
- viability at 500 µM [3]: 27.1%

Compound: N#CCc1ccc(O)cc1 [compound 98, 2‐(4‐hydroxyphenyl)acetonitrile]
- viability at 500 µM [1, 6]: 92.9 ± 6.5%
- ΔTm at 1000 µM [2, 9]: 0.27 ± 0.05 °C
- viability at 500 µM [3]: 115%

Compound: CC(=O)c1ccc(C#N)s1 [compound 198, 5‐acetylthiophene‐2‐carbonitrile]
- viability at 500 µM [1, 6]: 93.3 ± 15.3%
- ΔTm at 1000 µM [2, 7]: 0.24 ± 0.07 °C
- viability at 500 µM [3]: 61.2%

Compound: CC1OCCC1=O (stereo not shown) [compound 11, 2‐methyltetrahydrofuran‐3‐one]
- viability at 500 µM [1, 6]: 101 ± 5.4%
- ΔTm at 1000 µM [2, 7]: 0.77 ± 0.06 °C
- viability at 500 µM [3]: 85.3%

Compound: O=C(O)C1CCCO1 (stereo not shown) [compound 42, tetrahydro‐2‐furancarboxylic acid]
- viability at 500 µM [1, 6]: 81.9 ± 17%
- ΔTm at 1000 µM [2, 7]: 0.3 ± 0.08 °C
- viability at 500 µM [3]: 75.1%

Compound: N#CCc1nc2ccccc2s1 [compound 387, 2‐(1,3‐benzothiazol‐2‐yl)acetonitrile]
- viability at 500 µM [1, 6]: 86.4 ± 10.4%
- ΔTm at 1000 µM [2, 7]: 1.29 ± 0.14 °C
- viability at 500 µM [3]: 81%

Compound: O=C(O)c1ccc2cc[nH]c2c1 [compound 271, 1H‐indole‐6‐carboxylic acid]
- viability at 500 µM ([1]; read-out: HeLa Cells Alamar Blue, Supplementary Table 1, compound 0.5 mM, percentage of controls, mean ± SD (n=3) or SE (n=2)): 111 ± 16.2%
- ΔTm at 1000 µM [2, 9]: 0.06 ± 0.08 °C
- viability at 500 µM [3]: 75.6%

Compound: OCc1ccc(N2CCOCC2)s1 [compound 618, (5‐morpholinothien‐2‐yl)methanol]
- viability at 500 µM [1, 6]: 70.4 ± 13.2%
- ΔTm at 1000 µM [2, 7]: 1.12 ± 0.11 °C
- viability at 500 µM [3]: 76.3%

Compound: Nc1cc(F)ccc1-n1ccnc1 [compound 420, 5‐fluoro‐2‐(1H‐imidazol‐1‐yl)aniline]
- viability at 500 µM [1, 6]: 98.2 ± 10.9%
- ΔTm at 1000 µM [2, 7]: 0.36 ± 0.07 °C
- viability at 500 µM [3]: 100%

Compound: O=C1CCSc2ccc(Cl)cc21 [compound 609, 6-chloro-3,4-dihydro-2H-1-benzothiin-4-one]
- viability at 500 µM [1, 6]: 74.5 ± 13.7%
- viability at 500 µM [1, 8]: 74.5 ± 13.7%
- ΔTm at 1000 µM ([2]; read-out: TbIno1 Tm shift [°C]): 2.49 ± 0.04 °C
- viability at 500 µM [3]: 105%

Compound: Nc1cc2ccccc2cn1 [compound 153, isoquinolin‐3‐amine]
- viability at 500 µM [1, 6]: 88.5 ± 16.5%
- ΔTm at 1000 µM [2, 7]: 0.27 ± 0.06 °C
- viability at 500 µM [3]: 118%

Compound: Nc1ccc2c(c1)CCCC2=O [compound 280, 6‐amino‐1,2,3,4‐tetrahydronaphthalen‐1‐one]
- HeLa Cells Alamar Blue [1, 4]: 40.5 ± 19.2 percentage of controls
- Tb Ino1 Tm Shift [˚C] [2, 5]: 0.82 ± 0.09 °C
- A549 Cells Alamar Blue [3]: 87.3 percentage of controls

Compound: O=C(O)c1cnccc1C(F)(F)F [compound 553, 4‐(trifluoromethyl)nicotinic acid]
- viability at 500 µM [1, 6]: 102 ± 12.4%
- ΔTm at 1000 µM [2, 7]: 0.28 ± 0.07 °C
- viability at 500 µM [3]: 103%

Compound: OCc1cccnc1N1CCCCC1 [compound 572, (2‐piperidino‐3‐pyridinyl)methanol]
- viability at 500 µM [1, 6]: 65.1 ± 5.7%
- ΔTm at 1000 µM [2, 7]: 1.25 ± 0.09 °C
- viability at 500 µM [3]: 80.1%

Compound: NC(=O)c1ccc(F)c(Cl)c1 [compound 380, 3‐chloro‐4‐fluorobenzamide]
- viability at 500 µM [1, 6]: 92.2 ± 13.4%
- ΔTm at 1000 µM [2, 7]: 0.31 ± 0.06 °C
- viability at 500 µM [3]: 95.9%

Compound: Cn1c(CN)nc2ccccc21 [compound 281, (1‐methyl‐1H‐benzimidazol‐2‐yl)methylamine]
- viability at 500 µM [1, 6]: 47.6 ± 19.8%
- CC50 [1]: 659 ± 65 µM
- ΔTm at 1000 µM [2, 7]: 0.7 ± 0.04 °C
- viability at 500 µM [3]: 53.8%

Compound: Cc1ccc(C(N)=O)c(N)c1 [compound 190, 2-amino-4-methylbenzamide]
- viability at 500 µM [1, 6]: 46.7 ± 23.7%
- viability at 500 µM [1, 8]: 46.7 ± 23.7%
- ΔTm at 1000 µM ([2]; read-out: TbIno1 Tm shift [°C]): 1.52 ± 0.06 °C
- viability at 500 µM [3]: 106%

Compound: CC(=O)c1cc[nH]c1 [compound 20, 1-(1H-pyrrol-3-yl)ethan-1-one]
- viability at 500 µM [1, 6]: 102 ± 4.3%
- viability at 500 µM [1, 8]: 102 ± 4.3%
- CC50 [1]: > 5000 µM
- ΔTm at 1000 µM ([2]; read-out: TbIno1 Tm shift [°C]): 1.88 ± 0.08 °C
- viability at 500 µM [3]: 121%

Compound: CC(=O)CSc1ccc(C)cc1 [compound 460, 1‐[(4‐methylphenyl)thio]acetone]
- viability at 500 µM [1, 6]: 97 ± 2.5%
- ΔTm at 1000 µM [2, 7]: 0.46 ± 0.07 °C
- viability at 500 µM [3]: 96.9%

Compound: Cc1nc(-c2ccc(CO)cc2)cs1 [compound 667, [4‐(2‐methyl‐1,3‐thiazol‐4‐yl)phenyl]methanol]
- HeLa Cells Alamar Blue [1, 4]: 76.7 ± 4.3 percentage of controls
- Tb Ino1 Tm Shift [˚C] [2, 5]: 0.4 ± 0.07 °C
- A549 Cells Alamar Blue [3]: 103.8 percentage of controls

Compound: NCc1ccc(C(F)(F)F)cc1 [compound 390, 4‐(trifluoromethyl)benzylamine]
- viability at 500 µM [1, 6]: 84.4 ± 6.8%
- ΔTm at 1000 µM [2, 7]: 0.38 ± 0.08 °C
- viability at 500 µM [3]: 136%

Compound: O=C(O)C1Cc2ccccc2N1 (stereo not shown) [compound 292, indoline-2-carboxylic acid]
- viability at 500 µM [1, 6]: 37.6 ± 25%
- viability at 500 µM [1, 8]: 37.6 ± 2.5%
- ΔTm at 1000 µM ([2]; read-out: TbIno1 Tm shift [°C]): 1.54 ± 0.11 °C
- viability at 500 µM [3]: 78.3%

Compound: NC1Cc2ccccc2C1 [compound 104, indan‐2‐amine]
- viability at 500 µM [1, 6]: 70 ± 18.5%
- ΔTm at 1000 µM [2, 9]: 0.89 ± 0.05 °C
- viability at 500 µM [3]: 123%

Compound: CC(=O)c1ccc(C#N)cc1 [compound 155, 4‐acetylbenzonitrile]
- viability at 500 µM [1, 6]: 87.3 ± 16.6%
- ΔTm at 1000 µM [2, 9]: 0.19 ± 0.06 °C
- viability at 500 µM [3]: 131%

Compound: Cc1ccc2c(c1)OCO2 [compound 116, 5‐methyl‐1,3‐benzodioxole]
- viability at 500 µM [1, 6]: 82.7 ± 15.6%
- ΔTm at 1000 µM [2, 9]: 0.38 ± 0.06 °C
- viability at 500 µM [3]: 109%

Compound: CCc1cccc(C(C)=O)c1 [compound 174, 1‐(3‐ethylphenyl)ethan‐1‐one]
- viability at 500 µM [1, 6]: 100 ± 7.3%
- ΔTm at 1000 µM [2, 7]: 0.8 ± 0.05 °C
- viability at 500 µM [3]: 79.2%

Compound: Cn1ccc(N)n1 [compound 8, 1‐methyl‐1H‐pyrazol‐3‐amine]
- viability at 500 µM [1, 6]: 107 ± 7.8%
- ΔTm at 1000 µM [2, 7]: 0.09 ± 0.07 °C
- viability at 500 µM [3]: 122%

Compound: Cc1nc(-c2ccc(C#N)cc2)cs1 [compound 625, 4‐(2‐methyl‐1,3‐thiazol‐4‐yl)benzonitrile]
- viability at 500 µM [1, 6]: 74.1 ± 7.1%
- ΔTm at 1000 µM [2, 7]: 1.06 ± 0.07 °C
- viability at 500 µM [3]: 79.4%

Compound: COC(=O)c1cccc(N)c1 [compound 194, methyl 3‐aminobenzoate]
- viability at 500 µM [1, 6]: 88.3 ± 9.2%
- ΔTm at 1000 µM [2, 7]: 0.78 ± 0.06 °C
- viability at 500 µM [3]: 38.9%

Compound: Cc1nccc(-c2cccc(N)c2)n1 [compound 493, 3‐(2‐methylpyrimidin‐4‐yl)aniline]
- viability at 500 µM [1, 6]: 65.9 ± 17%
- ΔTm at 1000 µM [2, 7]: 0.15 ± 0.07 °C
- viability at 500 µM [3]: 92.6%

Compound: Oc1ccc(F)c(Cl)c1 [compound 160, 3‐chloro‐4‐fluorophenol]
- viability at 500 µM [1, 6]: 94.9 ± 15.3%
- ΔTm at 1000 µM [2, 7]: 0.02 ± 0.05 °C
- viability at 500 µM [3]: 77.4%

Compound: Cc1cc(N)n(C)n1 [compound 26, 1,3‐dimethyl‐1H‐pyrazol‐5‐amine]
- viability at 500 µM [1, 6]: 85.5 ± 9.4%
- ΔTm at 1000 µM [2, 7]: 0.54 ± 0.07 °C
- viability at 500 µM [3]: 70.1%
